Data reported in patent US20090176817A1, “Method of Treatment of Diarrhea-Predominant Irritable Bowel Syndrome in a Subject” (priority 2005, published 2009).
Read-outs that look alike come from different tables or passages of the source. Marks after values point to notes of the source that are not given here.

Assays:
[1] = system: healthy, elderly subjects; experiment: Study K.241.5014: colonic transit time, elderly, 8 mg TID; assay type: in vivo, human
Source text: The effect of cilansetron on gastric emptying time and colonic transit time has been studied in 1 clinical study in healthy young subjects and 2 studies in elderly subjects. For measurement of gastric emptying time, breath samples for the determination of the ^12C/^13C ratio were taken on the last day of each treatment period immediately after ingestion of a ^13C labeled meal. The patients' breath was collected in separate 15-minute intervals, for four hours in total. ^13CO2 measurements were performed with an isotope ratio mass spectrometer. The half-life (TK) and lag-time (Tlag), which describe the duration of gastric emptying, were used as the primary parameters to evaluate gastric emptying time. In all 3 studies, colonic transit time was measured by administration of radio-opaque markers for the last six days of each treatment period, followed by a single abdominal X-ray image at 24 hours after ingestion of the last set of markers. The numbers of markers within the colon were used to calculate segmental (right colon, left colon, and rectosigmoid) and total colonic transit time.
Studies K.241.5013 and K.241.5014 were randomized, double-blind, placebo-controlled, 2-way crossover studies in 8 healthy male and female elderly subjects, each (ITT population, aged 64-83 years in K.241.5013 and 66-84 years in K.241.5014). Elderly subjects were selected for these studies because they commonly suffer from constipation and it was of interest whether cilansetron would prolong gastrointestinal transit times in this population. Subjects received cilansetron 4 mg or placebo in Study K.241.5013 and cilansetron 8 mg or placebo in Study K.241.5014. Treatments were administered orally TID for 14 days during each period, with a 14-day washout between periods. The primary efficacy parameter was the total mean colonic transit time during each treatment and the secondary parameters were the segmental colonic transit times and the gastric emptying measurements. One-sided t-tests were used to compare efficacy parameters between the cilansetron and placebo treatments.

[2] = system: diarrhea-predominant IBS subjects; assay type: in vivo, human; settings: for Percentage of Subjects Who Worsened from Baseline: Daily Abdominal Pain / Percentage of Subjects Who Worsened from Baseline: Daily Urgency: S241.3.006, observed value
Source text: Studies S24 1.3.OO6, S24 1.3.0 1 1, and S24 1.3.009 used the following efficacy measurements: • The subjects answered the following three questions with “yes” or “no” using a phone diary at the end of each week: • a) During the last week, did you experience adequate relief of your IBS symptoms, such as abdominal pain, abdominal discomfort, abnormal bowel habits? • b) During the last week, did you experience adequate relief of your abdominal pain and/or discomfort? • c) During the last week, did you experience adequate relief of your abnormal bowel habits? • The subjects rated the following symptoms using the phone diary at the end of each day: • abdominal pain/discomfort (five-point scale); • stool consistency (seven-point Bristol Stool Scale); • stool frequency (number of bowel movements each day); • urgency (five-point scale); • straining (yes or no); • feeling of incomplete defecation (yes or no); • bloating or feeling of abdominal distension (five-point scale). • In Studies S241 A006 and S241.3.009, subjects completed the IBS-QOL Survey at Baseline (Day 1) and at the end of treatment. In Study S24 1.3.0 1 1, subjects completed the IBS-QOL Survey at Baseline (Day 1), at the end of the three-month treatment period, and at the end of rerandomized treatment.
Other secondary efficacy parameters for all three studies included: • Responder rate for the weekly diary questions on adequate relief at each month, where a responder for a month (monthly responder) was defined as a subject who answered the weekly question with “yes” at least twice for that month. The responder rate was the percentage of responders within a treatment group. The all-month responder rate for the weekly diary questions on adequate relief was also evaluated, where an all-month responder was defined as a subject who answered the weekly question with “yes” at least twice for each month. The all-month responder rate was the percentage of all-month responders within a treatment group; • Adequate relief rate for the weekly diary questions was calculated for each subject as the number of weekly assessments with adequate relief (“yes”) divided by the total number of weekly assessments; • Percentage of subjects with adequate relief for the weekly diary questions at each week; • Daily diary questions regarding abdominal pain/discomfort (five-point scale), stool consistency (seven-point scale), stool frequency (number of bowel movements each day), straining (yes or no), urgency (five-point scale), feeling of incomplete evacuation (yes or no), and bloating or feeling of abdominal distention (five-point scale); • QOL data assessed by the IBS-QOL questionnaire; and • Question to determine the interruption of activities.
The deterioration of effect analyses focus is to evaluate the percentage of subjects who worsened from Baseline. Clinical limits were set in order to capture a clinically meaningful number of subjects who worsened from Baseline. This clinical limit was also used in identifying those who improved from Baseline which led to a much larger percentage of subjects meeting this criterion. Percentages of subjects who improved from Baseline for these analyses are discussed in order to understand the context of the percentage of subjects who worsened.

[3] = human, in vivo
Method: Subjects were randomized to receive a cilansetron 8 mg capsule after an overnight fast and a cilansetron 8 mg capsule after a high-fat breakfast during the two treatment periods, with a 3-day washout between periods. Serial blood sampling and urine collection was performed up to 24 hours following each dose, and cilansetron pharmacokinetic parameters were evaluated.

[4] = both, human, in vivo
Method: Diurnal variations in cilansetron pharmacokinetics have been evaluated in a randomized, double-blind, placebo-controlled, 2-way crossover study in 9 male and 9 female healthy subjects, aged 21 to 39 years. Subjects were randomized to receive 2 treatments (cilansetron 16 mg tablet and placebo) during the 2 treatment periods. During each treatment period, subjects received a single dose of their assigned treatment on the first day (Day 1), after which they received the same treatment TID for 4 days (Days 2-5). There was a 10-day washout period between treatment periods. Subjects were fasted for at least 2 hours before and following each dose, and heavy physical activity was restricted. Serial blood samples for the measurement of multiple-dose pharmacokinetics of cilansetron were collected up to 24 hours postdose on Day 5.

serum proteins = experiment: in vitro; settings: both, human, plasma, Plasma protein bound
Method: The ex vivo protein binding of cilansetron and its 4-hydroxy metabolites has been measured in serum samples collected in a multiple-dose study in healthy and renally impaired male and female subjects, aged 33-74 years. […] Healthy subjects were matched to renally-impaired subjects with respect to age, weight, gender, and smoking status. All subjects received oral cilansetron 2 mg TID on Days 1 to 5, and a single dose on the morning of Day 6.

CYP1A2 = CYP1A2 (Homo sapiens, UniProt P05177); experiment: biochemical
[5] = 8 mg TID oral 14 days, healthy elderly, Study K.241.5014, mean (SD)

Chain of CYP1A2 (P05177 whole entry): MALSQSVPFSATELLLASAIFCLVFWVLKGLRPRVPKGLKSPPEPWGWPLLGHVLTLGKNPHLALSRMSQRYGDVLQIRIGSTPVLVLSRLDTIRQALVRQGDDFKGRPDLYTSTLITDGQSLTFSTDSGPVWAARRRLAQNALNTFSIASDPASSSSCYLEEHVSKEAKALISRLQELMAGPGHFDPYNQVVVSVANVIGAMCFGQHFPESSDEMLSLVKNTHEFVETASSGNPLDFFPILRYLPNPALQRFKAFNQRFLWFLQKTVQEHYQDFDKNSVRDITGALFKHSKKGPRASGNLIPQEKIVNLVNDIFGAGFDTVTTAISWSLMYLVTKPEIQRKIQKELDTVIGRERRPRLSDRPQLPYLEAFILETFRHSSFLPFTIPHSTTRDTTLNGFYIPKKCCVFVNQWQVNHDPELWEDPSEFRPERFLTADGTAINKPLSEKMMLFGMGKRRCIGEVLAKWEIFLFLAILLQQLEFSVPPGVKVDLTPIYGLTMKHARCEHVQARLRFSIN

Cc1nccn1C[C@H]1CCc2c(c3cccc4c3n2CCC4)C1=O [Cilansetron, (R)-(−)-4,5,6,8,9,10-hexahydro-10-[(2-methyl-1H-imidazol-1-yl)methyl]-11H-pyrido-[3,2,1-jk]-carbazol-11-one]
Total colonic transit time vs placebo ([1]; 8 mg TID): statistically significant increase | Transit Times, Colonic Segments Left [1, 5]: 31.5 (30.5) hours | Transit Times, Colonic Segments Rectosigmoid [1, 5]: 16.7 (25.2) hours | Transit Times, Colonic Segments Right [1, 5]: 31.4 (21.0) hours | Transit Times, Colon Total ([1]; 8 mg TID oral 14 days, healthy elderly, Study K.241.5014, mean (SD), significant vs placebo (p < 0.05)): 79.8 (49.8)* hours | Mean number of stools per day at end of treatment ([2]; 2 mg TID): 2.45 stools per day | Percentage of Subjects Who Worsened from Baseline: Daily Abdominal Pain ([2]; Weeks 1-2, 2 mg TID): 13% | Percentage of Subjects Who Worsened from Baseline: Daily Urgency ([2]; Weeks 1-2, 2 mg TID): 5% | Percentage of Subjects Who Worsened from Baseline: Daily Abdominal Pain ([2]; Weeks 3-4, 2 mg TID): 8% | Percentage of Subjects Who Worsened from Baseline: Daily Urgency ([2]; Weeks 3-4, 2 mg TID): 5% | Percentage of Subjects Who Worsened from Baseline: Daily Abdominal Pain ([2]; Weeks 5-6, 2 mg TID): 9% | Percentage of Subjects Who Worsened from Baseline: Daily Urgency ([2]; Weeks 5-6, 2 mg TID): 8% | Percentage of Subjects Who Worsened from Baseline: Daily Abdominal Pain ([2]; Weeks 7-8, 2 mg TID): 7% | Percentage of Subjects Who Worsened from Baseline: Daily Urgency ([2]; Weeks 7-8, 2 mg TID): 5% | Percentage of Subjects Who Worsened from Baseline: Daily Abdominal Pain ([2]; Weeks 9-10, 2 mg TID): 8% | Percentage of Subjects Who Worsened from Baseline: Daily Urgency ([2]; Weeks 9-10, 2 mg TID): 8% | Percentage of Subjects Who Worsened from Baseline: Daily Abdominal Pain ([2]; Weeks 11-12, 2 mg TID): 8% | Percentage of Subjects Who Worsened from Baseline: Daily Urgency ([2]; Weeks 11-12, 2 mg TID): 8% | Subjects worsened from Baseline, daily abdominal pain ([2]; Weeks 1-2): 13% | Subjects worsened from Baseline, daily urgency ([2]; Weeks 1-2): 5% | Median rate of urgency-free days ([2]; end of treatment): 0.27 | Bloating or abdominal distention score, change from Baseline at end of treatment ([2]; in vivo): −0.48 | Daily abdominal pain/discomfort score, change from Baseline at end of treatment ([2]; in vivo): −0.69 | Daily stool consistency score, change from Baseline at end of treatment ([2]; in vivo): −1.22 | Daily urgency score, change from Baseline at end of treatment ([2]; in vivo): −0.87 | Feeling of incomplete evacuation, change from Baseline at end of treatment ([2]; in vivo): −0.18 | Mean stool consistency score at end of treatment ([2]; in vivo): 4.10 | Mean straining, change from Baseline at end of treatment ([2]; in vivo): 0.09 | Stools per day, change from Baseline at end of treatment ([2]; in vivo): −0.98 | Median rate of pain-free days ([2]; three-month period): 0.19 | Median rate of urgency-free days ([2]; three-month period): 0.32 | CL/F ([3]; 8 mg): 2698 (77) mL/min | % Dose (urine) ([3]; male): 0.21 (91) % | AUC (0-last) ratio fed/fasted ([3]; male): 108% | AUC(0-inf) ratio fed/fasted ([3]; male): 104% | Cmax ratio fed/fasted ([3]; male): 79% | AUC(0-inf) ([3]; male, 8 mg): 77.6 (66) ng · h/mL | AUC(0-last) ([3]; male, 8 mg): 72.8 (72) ng · h/mL | CLr ([3]; male, 8 mg): 3.86 (90) mL/min | Cmax ([3]; male, 8 mg): 31.7 (58) ng/mL | Cmax decrease with high-fat meal ([3]; male, 8 mg): 21% | Tmax ([3]; male, 8 mg): 1.00 (0.50, 2.00) h | T½ ([3]; male, 8 mg): 1.43 (40) h | Vz/F ([3]; male, 8 mg): 309 (76) L | AUC ratio 0-8 h/8-16 h [4]: 106 (99, 115) % | AUC ratio 0-8 h/16-24 h [4]: 110 (103, 119) % | AUC ratio 8-16 h/16-24 h [4]: 104 (96, 111) % | Cmax ratio 0-8 h/8-16 h [4]: 130 (111, 153) % | Cmax ratio 0-8 h/16-24 h [4]: 133 (113, 157) % | Cmax ratio 8-16 h/16-24 h [4]: 102 (87, 120) % | Mean Cmax higher after morning dose than mid-day and evening doses ([4]; 16 mg): 30-33% | fraction unbound (serum proteins): ~0.04 | IC50 (CYP1A2): 60 µM
